Source: patent publication US20230126987A1, “METHODS FOR TREATING CYTOKINE STORM SYNDROME AND RELATED DISEASES” (Generos Biopharma Ltd., priority 2020, published 2023)

How the values were obtained:
[1] = system: RSV-infected lung epithelial cells; conditions: cited from earlier work
[2] = system: LPS-induced pro-inflammatory cytokines; experiment: LPS-induced acute lung injury model in mice, BALF cytokines by ELISA; conditions: airway LPS 1 µg day 1
H5N1 virus = conditions: co-administration with zanamivir, compared to antiviral treatment alone; cited from earlier work
H2N2 influenza virus = conditions: intraperitoneally on days 4 to 10 after exposure to H2N2 influenza virus, following the onset of illness; cited from earlier work
[3] = system: LPS-induced pro-inflammatory cytokines; experiment: LPS-induced sepsis model in mice, plasma cytokines by ELISA; type: in vivo, Balb/c mice; conditions: i.p. 1 hour before LPS 10 mg/kg i.p., DEX 3 mg/kg, Nib1 5 mg/kg, 4 hours after LPS
Procedure: FIGS. 2A and 2B show the cytokine levels of TNFα and IL-6, respectively, in serum as measured by an ELISA kit. […] Whole blood was collected at 4 hours after LPS injection, and the plasma was extracted for ELISA measurement. *indicates P<0.05, **indicates P<0.01, *** indicates P<0.001, and **** indicates P<0.0001.
After 1 hour, all the animals were exposed to lethal dose of LPS (10 mg/kg, 2 mg/mL, i.p., Solarbio L8880). All animals were sacrificed 4 hours after LPS injection for tissue and whole blood collection.
FIGS. 2A and 2B show the cytokine levels of TNFα and IL-6, respectively, in the serum as measured by an ELISA kit. […] Whole blood was collected at 4 hours after LPS injection and plasma was extracted for ELISA measurement. *indicates P<0.05, **indicates P<0.01, *** indicates P<0.001, and **** indicates P<0.0001.

human PBMC = experiment: LPS-induced cytokine release in human PBMC, Luminex multiplex cytokine profiling; type: cell-based; conditions: 10 µM 1 h before LPS 100 ng/ml for 4 h; supernatant; relative to DMSO = 100%
[4] = system: LPS-induced pro-inflammatory cytokines; experiment: Repetitive low dose LPS challenge sepsis-like persistent inflammation model in mice, whole blood cell cytokine RT-qPCR; type: in vivo, Balb/c mice; conditions: LPS 10 µg/mouse i.p. daily for 4 days, oral DEX 3 mg/kg or Nib1 0.6 mg/kg daily, whole blood cells RT-qPCR
Description: FIGS. 4A, 4B, and 4C show the cytokine levels of IL-1β, IL-6, and TNFα, respectively, in the whole blood cells as measured by RT-qPCR. […] At the end of experiment, whole blood cells were collected and the total RNA was extracted for RT-qPCR measurement of the cytokine mRNA. *indicates P<0.05, **indicates P<0.01, *** indicates P<0.001.
At the end of the experiment, all animals were sacrificed, and whole blood cells were purified by centrifugation and subjected to standard RT-qPCR detection of IL-6 and TNFα mRNA levels according to the manufacturer’s instructions.

STAT5 = STAT5 inhibition in Jurkat cells, immunoblotting of IFNβ-induced STAT5 phosphorylation (pY694)
[5] = 3 mg/kg po qd 4 days, compared to DMSO-treated group, p<0.05

CCCCC/C=C/C=C1/C(=O)C=C[C@@H]1C/C=C\CCCC(=O)O [15d-PGJ2]
production of IL-1α, IL-6, and TNF cytokines, CXCL8 and CCL5 chemokines, and ICAM-1 [1]: decreased production

CC(=O)OCC(=O)[C@@]1(O)[C@H](C)C[C@H]2[C@@H]3CCC4=CC(=O)C=C[C@]4(C)[C@@]3(F)[C@@H](O)C[C@@]21C [DEX, dexamethasone acetate]
reduction of IL-6 level in bronchoalveolar lavage fluid [2, 5]: about 50% | reduction of TNFα level in bronchoalveolar lavage fluid [2, 5]: about 50%

Nc1ccc(O)c(C(=O)O)c1 [Mesalamine]
cellular infiltrate (H5N1 virus): diminished cellular infiltrate | survival (H5N1 virus): improved survival

Cc1ccc(C)c(OCCCC(C)(C)C(=O)O)c1 [gemfibrozil]
survival (H2N2 influenza virus): significantly increased survival

O=c1[nH]c2ccccc2n1C1CCN(CCCC(c2ccc(F)cc2)c2ccc(F)cc2)CC1 [pimozide, 1-[1-[4,4-bis(4-fluorophenyl)butyl]-4-piperidinyl]-1,3-dihydro-2H-benzimidazole-2-one]
plasma level of TNFα ([3]; vs DMSO (DEX p<0.0001, Nib1 p<0.01)): significantly reduced | plasma level of IL-6 ([3]; vs DMSO (DEX p<0.01, Nib1 p<0.001)): significantly reduced | secretion of IL4 (human PBMC): significantly reduced | secretion of IL17A (human PBMC): significantly reduced | secretion of IL23 (human PBMC): significantly reduced | secretion of IL-1β (human PBMC): significantly reduced | secretion of IL-6 (human PBMC): significantly reduced | TNFα level ([4]; TNFα returned to basal level): no difference was detected | IL-1β level ([4]; vs DMSO (DEX p<0.05, Nib1 p<0.001)): significantly reduced | IL-6 level ([4]; vs DMSO (both p<0.05)): significantly reduced | level of IL-6 in bronchoalveolar lavage fluid ([2]; 0.6 mg/kg po qd 4 days, vs DMSO, p<0.001): significantly reduced | level of TNFα in bronchoalveolar lavage fluid ([2]; 0.6 mg/kg po qd 4 days, vs DMSO, p<0.01): significantly reduced | reduction of the activation of STAT5 (phosphorylation) (STAT5; Jurkat cells pretreated with 10 µM for 1 hour, then IFNβ 50 ng/ml for 30 min): more than 50% | Phospho-STAT5 signal (STAT5; Jurkat cells treated with 50 µM, IFNβ 50 ng/ml for 30 min): completely undetectable
